Patent publication US9493537B2, “Compounds with reduced ring size for use in diagnosing and treating melanoma, including metastatic melanoma and methods related to same” (STC.UNM, priority 2009, dated 2016)
Like-named read-outs stand apart in the source and are kept apart here.

Experiments:
[1] = Biodistribution in B16/F1 melanoma-bearing C57 mice; assay type: in vivo; details: female, C57, mouse, iv, total radioactivity
Method: All the animal studies were conducted in compliance with Institutional Animal Care and Use Committee approval. The mice were housed five animals per cage in sterile micro-isolator cages in a temperature- and humidity-controlled room with a 12-h light/12-h dark schedule. […] C57 mice were subcutaneously inoculated on the right flank with 1×10^6 B16/F1 cells. The weight of tumors reached approximately 0.2 g 10 days post cell inoculation. […] Groups of 5 mice were sacrificed at 0.5, 2, 4 and 24 h post-injection, and tumors and organs of interest were harvested, weighed and counted. Blood values were taken as 6.5% of the whole-body weight. […] The mice were sacrificed at 2 h post-injection. The tumor and organs of interest were harvested, weighed and counted.
All animal studies were conducted in compliance with Institutional Animal Care and Use Committee approval. The pharmacokinetics of ^111In-DOTA-GGNle-CycMSHhex and ^111In-DOTA-GENle-CycMSHhex were determined in B16/F1 melanoma-bearing C57 female mice (Harlan, Indianapolis, Ind.). The C57 mice were subcutaneously inoculated with 1×10^6 B16/F1 cells on the right flank for each mouse to generate B16/F1 melanomas. Ten days post inoculation, the tumor weights reached approximately 0.2 g. Each melanoma-bearing mouse was injected with 0.037 MBq of ^111In-DOTA-GGNle-CycMSHhex or ^111In-DOTA-GENle-CycMSHhex via the tail vein. Groups of 5 mice were sacrificed at 0.5, 2, 4 and 24 h post-injection, and tumors and organs of interest were harvested, weighed and counted. Blood values were taken as 6.5% of the whole-body weight. The specificities of the tumor uptake of ^111In-DOTA-GGNle-CycMSHhex and ^111In-DOTA-GENle-CycMSHhex were determined by co-injecting 10 μg (6.07 nmol) of unlabeled NDP-MSH which is a linear α-MSH peptide analogue with picomolar MC1 receptor binding affinity.

B16/F1 melanoma = details: literature, cited from earlier work

tissue uptake at 0.5 h ([1]; blood, 0.037 MBq, 0.5 h post-injection, read-out: Blood uptake): 3.33 ± 0.35 %ID/g
tissue uptake at 2 h ([1]; blood, 0.037 MBq, 2 h post-injection, read-out: Blood uptake): 0.11 ± 0.07 %ID/g
tissue uptake at 4 h ([1]; blood, 0.037 MBq, 4 h post-injection, read-out: Blood uptake): 0.05 ± 0.02 %ID/g
tissue uptake at 24 h ([1]; blood, 0.037 MBq, 24 h post-injection, read-out: Blood uptake): 0.02 ± 0.01 %ID/g
tissue uptake at 2 h ([1]; blood, 2 h post-injection, L-lysine co-injection, read-out: Blood uptake): 0.92 ± 0.48 %ID/g
tissue uptake at 2 h ([1]; blood, 2 h post-injection, NDP blockade, read-out: Blood uptake): 0.07 ± 0.05 %ID/g
tissue uptake at 0.5 h ([1]; bone, 0.037 MBq, 0.5 h post-injection, read-out: Bone uptake): 1.34 ± 0.4 %ID/g
tissue uptake at 2 h ([1]; bone, 0.037 MBq, 2 h post-injection, read-out: Bone uptake): 0.18 ± 0.1 %ID/g
tissue uptake at 4 h ([1]; bone, 0.037 MBq, 4 h post-injection, read-out: Bone uptake): 0.22 ± 0.15 %ID/g
tissue uptake at 24 h ([1]; bone, 0.037 MBq, 24 h post-injection, read-out: Bone uptake): 0.16 ± 0.03 %ID/g
tissue uptake at 2 h ([1]; bone, 2 h post-injection, L-lysine co-injection, read-out: Bone uptake): 0.55 ± 0.14 %ID/g
tissue uptake at 2 h ([1]; bone, 2 h post-injection, NDP blockade, read-out: Bone uptake): 0.05 ± 0.04 %ID/g
tissue uptake at 0.5 h ([1]; brain, 0.037 MBq, 0.5 h post-injection, read-out: Brain uptake): 0.21 ± 0.07 %ID/g
tissue uptake at 2 h ([1]; brain, 0.037 MBq, 2 h post-injection, read-out: Brain uptake): 0.02 ± 0.01 %ID/g
tissue uptake at 4 h ([1]; brain, 0.037 MBq, 4 h post-injection, read-out: Brain uptake): 0.06 ± 0.03 %ID/g
tissue uptake at 24 h ([1]; brain, 0.037 MBq, 24 h post-injection, read-out: Brain uptake): 0.03 ± 0.01 %ID/g
tissue uptake at 2 h ([1]; brain, 2 h post-injection, L-lysine co-injection, read-out: Brain uptake): 0.04 ± 0.01 %ID/g
tissue uptake at 2 h ([1]; brain, 2 h post-injection, NDP blockade, read-out: Brain uptake): 0.01 ± 0.01 %ID/g
tissue uptake at 0.5 h ([1]; heart, 0.037 MBq, 0.5 h post-injection, read-out: Heart uptake): 1.24 ± 0.15 %ID/g
tissue uptake at 2 h ([1]; heart, 0.037 MBq, 2 h post-injection, read-out: Heart uptake): 0.16 ± 0.1 %ID/g
tissue uptake at 4 h ([1]; heart, 0.037 MBq, 4 h post-injection, read-out: Heart uptake): 0.12 ± 0.03 %ID/g
tissue uptake at 24 h ([1]; heart, 0.037 MBq, 24 h post-injection, read-out: Heart uptake): 0.07 ± 0.05 %ID/g
tissue uptake at 2 h ([1]; heart, 2 h post-injection, L-lysine co-injection, read-out: Heart uptake): 0.37 ± 0.02 %ID/g
tissue uptake at 2 h ([1]; heart, 2 h post-injection, NDP blockade, read-out: Heart uptake): 0.06 ± 0.02 %ID/g
tissue uptake dose at 0.5 h ([1]; intestines, 0.037 MBq, 0.5 h post-injection, read-out: Intestines, percent injected dose): 2.16 ± 0.28 %ID
tissue uptake dose at 2 h ([1]; intestines, 0.037 MBq, 2 h post-injection, read-out: Intestines, percent injected dose): 1.4 ± 0.56 %ID
tissue uptake dose at 4 h ([1]; intestines, 0.037 MBq, 4 h post-injection, read-out: Intestines, percent injected dose): 3.03 ± 1.06 %ID
tissue uptake dose at 24 h ([1]; intestines, 0.037 MBq, 24 h post-injection, read-out: Intestines, percent injected dose): 1.41 ± 0.86 %ID
tissue uptake dose at 2 h ([1]; intestines, 2 h post-injection, L-lysine co-injection, read-out: Intestines, percent injected dose): 1.85 ± 0.73 %ID
tissue uptake dose at 2 h ([1]; intestines, 2 h post-injection, NDP blockade, read-out: Intestines, percent injected dose): 1.14 ± 0.47 %ID
tissue uptake at 0.5 h ([1]; kidneys, 0.037 MBq, 0.5 h post-injection, read-out: Kidneys uptake): 16.2 ± 4.32 %ID/g
tissue uptake at 2 h ([1]; kidneys, 0.037 MBq, 2 h post-injection, read-out: Kidneys uptake): 9.52 ± 0.44 %ID/g
tissue uptake at 4 h ([1]; kidneys, 0.037 MBq, 4 h post-injection, read-out: Kidneys uptake): 9.99 ± 1.39 %ID/g
tissue uptake at 24 h ([1]; kidneys, 0.037 MBq, 24 h post-injection, read-out: Kidneys uptake): 9.31 ± 0.91 %ID/g
tissue uptake at 2 h ([1]; kidneys, 2 h post-injection, L-lysine co-injection, read-out: Kidneys uptake): 6.66 ± 0.62 %ID/g
tissue uptake at 2 h ([1]; kidneys, 2 h post-injection, NDP blockade, read-out: Kidneys uptake): 11.6 ± 0.56 %ID/g
tissue uptake at 0.5 h ([1]; liver, 0.037 MBq, 0.5 h post-injection, read-out: Liver uptake): 2.75 ± 0.26 %ID/g
tissue uptake at 2 h ([1]; liver, 0.037 MBq, 2 h post-injection, read-out: Liver uptake): 1.46 ± 0.2 %ID/g
tissue uptake at 4 h ([1]; liver, 0.037 MBq, 4 h post-injection, read-out: Liver uptake): 1.72 ± 0.07 %ID/g
tissue uptake at 24 h ([1]; liver, 0.037 MBq, 24 h post-injection, read-out: Liver uptake): 1.89 ± 0.14 %ID/g
tissue uptake at 2 h ([1]; liver, 2 h post-injection, L-lysine co-injection, read-out: Liver uptake): 1.42 ± 0.3 %ID/g
tissue uptake at 2 h ([1]; liver, 2 h post-injection, NDP blockade, read-out: Liver uptake): 1.46 ± 0.08 %ID/g
tissue uptake at 0.5 h ([1]; lung, 0.037 MBq, 0.5 h post-injection, read-out: Lung uptake): 2.45 ± 0.83 %ID/g
tissue uptake at 2 h ([1]; lung, 0.037 MBq, 2 h post-injection, read-out: Lung uptake): 0.32 ± 0.1 %ID/g
tissue uptake at 4 h ([1]; lung, 0.037 MBq, 4 h post-injection, read-out: Lung uptake): 0.1 ± 0.05 %ID/g
tissue uptake at 24 h ([1]; lung, 0.037 MBq, 24 h post-injection, read-out: Lung uptake): 0.1 ± 0.03 %ID/g
tissue uptake at 2 h ([1]; lung, 2 h post-injection, L-lysine co-injection, read-out: Lung uptake): 0.75 ± 0.21 %ID/g
tissue uptake at 2 h ([1]; lung, 2 h post-injection, NDP blockade, read-out: Lung uptake): 0.3 ± 0.06 %ID/g
tissue uptake at 0.5 h ([1]; muscle, 0.037 MBq, 0.5 h post-injection, read-out: Muscle uptake): 0.6 ± 0.22 %ID/g
tissue uptake at 2 h ([1]; muscle, 0.037 MBq, 2 h post-injection, read-out: Muscle uptake): 0.15 ± 0.08 %ID/g
tissue uptake at 4 h ([1]; muscle, 0.037 MBq, 4 h post-injection, read-out: Muscle uptake): 0.1 ± 0.08 %ID/g
tissue uptake at 24 h ([1]; muscle, 0.037 MBq, 24 h post-injection, read-out: Muscle uptake): 0.03 ± 0.01 %ID/g
tissue uptake at 2 h ([1]; muscle, 2 h post-injection, L-lysine co-injection, read-out: Muscle uptake): 0.1 ± 0.08 %ID/g
tissue uptake at 2 h ([1]; muscle, 2 h post-injection, NDP blockade, read-out: Muscle uptake): 0.02 ± 0.01 %ID/g
tissue uptake at 0.5 h ([1]; pancreas, 0.037 MBq, 0.5 h post-injection, read-out: Pancreas uptake): 1.18 ± 0.38 %ID/g
tissue uptake at 2 h ([1]; pancreas, 0.037 MBq, 2 h post-injection, read-out: Pancreas uptake): 0.14 ± 0.02 %ID/g
tissue uptake at 4 h ([1]; pancreas, 0.037 MBq, 4 h post-injection, read-out: Pancreas uptake): 0.16 ± 0.02 %ID/g
tissue uptake at 24 h ([1]; pancreas, 0.037 MBq, 24 h post-injection, read-out: Pancreas uptake): 0.23 ± 0.08 %ID/g
tissue uptake at 2 h ([1]; pancreas, 2 h post-injection, L-lysine co-injection, read-out: Pancreas uptake): 0.21 ± 0.05 %ID/g
tissue uptake at 2 h ([1]; pancreas, 2 h post-injection, NDP blockade, read-out: Pancreas uptake): 0.12 ± 0.02 %ID/g
tissue uptake at 0.5 h ([1]; skin, 0.037 MBq, 0.5 h post-injection, read-out: Skin uptake): 4.11 ± 0.72 %ID/g
tissue uptake at 2 h ([1]; skin, 0.037 MBq, 2 h post-injection, read-out: Skin uptake): 0.66 ± 0.23 %ID/g
tissue uptake at 4 h ([1]; skin, 0.037 MBq, 4 h post-injection, read-out: Skin uptake): 0.53 ± 0.05 %ID/g
tissue uptake at 24 h ([1]; skin, 0.037 MBq, 24 h post-injection, read-out: Skin uptake): 0.64 ± 0.16 %ID/g
tissue uptake at 2 h ([1]; skin, 2 h post-injection, L-lysine co-injection, read-out: Skin uptake): 1.02 ± 0.09 %ID/g
tissue uptake at 2 h ([1]; skin, 2 h post-injection, NDP blockade, read-out: Skin uptake): 0.29 ± 0.02 %ID/g
tissue uptake at 0.5 h ([1]; spleen, 0.037 MBq, 0.5 h post-injection, read-out: Spleen uptake): 1.09 ± 0.33 %ID/g
tissue uptake at 2 h ([1]; spleen, 0.037 MBq, 2 h post-injection, read-out: Spleen uptake): 0.41 ± 0.13 %ID/g
tissue uptake at 4 h ([1]; spleen, 0.037 MBq, 4 h post-injection, read-out: Spleen uptake): 0.47 ± 0.13 %ID/g
tissue uptake at 24 h ([1]; spleen, 0.037 MBq, 24 h post-injection, read-out: Spleen uptake): 0.32 ± 0.08 %ID/g
tissue uptake at 2 h ([1]; spleen, 2 h post-injection, L-lysine co-injection, read-out: Spleen uptake): 0.43 ± 0.07 %ID/g
tissue uptake at 2 h ([1]; spleen, 2 h post-injection, NDP blockade, read-out: Spleen uptake): 0.44 ± 0.02 %ID/g
tissue uptake at 0.5 h ([1]; stomach, 0.037 MBq, 0.5 h post-injection, read-out: Stomach uptake): 3.2 ± 0.98 %ID/g
tissue uptake at 2 h ([1]; stomach, 0.037 MBq, 2 h post-injection, read-out: Stomach uptake): 1.25 ± 0.24 %ID/g
tissue uptake at 4 h ([1]; stomach, 0.037 MBq, 4 h post-injection, read-out: Stomach uptake): 1.49 ± 0.12 %ID/g
tissue uptake at 24 h ([1]; stomach, 0.037 MBq, 24 h post-injection, read-out: Stomach uptake): 1.34 ± 0.42 %ID/g
tissue uptake at 2 h ([1]; stomach, 2 h post-injection, L-lysine co-injection, read-out: Stomach uptake): 1.64 ± 0.78 %ID/g
tissue uptake at 2 h ([1]; stomach, 2 h post-injection, NDP blockade, read-out: Stomach uptake): 0.36 ± 0.14 %ID/g
tissue uptake at 0.5 h ([1]; tumor, 0.037 MBq, 0.5 h post-injection, read-out: Tumor uptake): 24.9 ± 4.58 %ID/g
tissue uptake at 2 h ([1]; tumor, 0.037 MBq, 2 h post-injection, read-out: Tumor uptake): 19.4 ± 1.65 %ID/g
tissue uptake at 4 h ([1]; tumor, 0.037 MBq, 4 h post-injection, read-out: Tumor uptake): 17 ± 2.54 %ID/g
tissue uptake at 24 h ([1]; tumor, 0.037 MBq, 24 h post-injection, read-out: Tumor uptake): 10.5 ± 1.11 %ID/g
tissue uptake at 2 h ([1]; tumor, 2 h post-injection, L-lysine co-injection, read-out: Tumor uptake): 14.5 ± 3.25 %ID/g
tissue uptake at 2 h ([1]; tumor, 2 h post-injection, NDP blockade, read-out: Tumor uptake): 0.81 ± 0.03 %ID/g
dose excreted at 2 h ([1]; urine, 0.037 MBq, 2 h post-injection, read-out: Urine, percent injected dose): 82.2 ± 5.83%
Structure (SMILES): CCCC[C@H](NC(=O)CN1CCN(CC(=O)O)CCN(CC(=O)O)CCN(CC(=O)O)CC1)C(=O)N[C@H]1CC(=O)NCCCC[C@@H](C(N)=O)NC(=O)[C@H](Cc2c[nH]c3ccccc23)NC(=O)[C@H](CCCNC(=N)N)NC(=O)[C@@H](Cc2ccccc2)NC(=O)[C@H](Cc2c[nH]cn2)NC1=O [^111In-DOTA-Nle-CycMSHhex, metal not drawn]
tumor (melanoma) uptake (B16/F1 melanoma; 0.5 h post-injection): 24.94±4.58 % ID/g
tumor (melanoma) uptake (B16/F1 melanoma; 2 h post-injection): 19.39±1.65 % ID/g
tumor (melanoma) uptake (B16/F1 melanoma; 4 h post-injection): 17.01±2.54 % ID/g
